The structures appear in SMILES notation. Where “and” joins values, the source holds several entries; their conditions need not be identical. Equal entries are not always repeated. Entries after “also recorded” stand apart in the source; their conditions may differ. Where two headings read alike, the source gives them in different places.

A short description of data set [1]: Cytotoxicity, EZ4U Cell Proliferation and Cytotoxicity Assay. It counts as cell-based, human. The settings on record: human. How it is done:
(§1) All compounds have no intrinsic toxicity in the concentration range up to 100 μM (Figure 8) in HeLa cells, with the exception of 16a and berberine, which are toxic at concentrations above 20 μM. 16a is slightly toxic (CC50 ~ 100 μM) and differs from non-toxic 10a in the presence of a double bond in the sultone cycle. The original berberine 1 is toxic to HeLa cells with a cytotoxic concentration (CC50) of 20 μM, which is consistent with the literature data.
(§2) Cytotoxicity of the compounds to HeLa (human cervical cancer) cell line was examined using the EZ4U Cell Proliferation and Cytotoxicity Assay (Biomedica, Vienna, Austria), according to the manufacturer’s protocols. The cells were grown in Iscove’s modified Dulbecco’s medium (IMDM) with 40 μg/mL gentamicin, 50 IU/mL penicillin, 50 μg/mL streptomycin (MP Biomedicals, Waltham, MA, USA), and 10% of fetal bovine serum (Biolot, Saint Petersburg, Russia) in a 5% CO2 atmosphere. After the formation of a 30–50%-monolayer, the tested compounds were added to the medium. The volume of the added reagents was 1/100 of the total volume of the culture medium, and the amount of DMSO was 1% of the final volume. Control cells were grown in the presence of 1% DMSO. The cell culture was monitored for 3 days.

Data set [2] has as its target T1, tyrosyl-DNA phosphodiesterase 1 (Tdp1) (Homo sapiens, UniProt Q9NUW8).
T1 construct: Purified Tdp1 (1.5 nM) triggered the reaction
The data set can be described thus: Tdp1 activity, fluorescent oligonucleotide biosensor (FAM/BHQ1) assay. Type of data set: biochemical. The settings on record: purified Tdp1 1.5 nM, 50 nM biosensor; read-out: Tdp1 inhibiting activity IC50. How it is done: In this work, newly synthesized sultones were tested for their inhibition of Tdp1. Tdp1 activity was measured using a fluorescent biosensor as previously described. The biosensor is an oligonucleotide with a fluorophore (FAM) at the 5′-end and a fluorescence quencher (BHQ1) at the 3′-end. Due to the activity of the enzyme, the quencher is removed, which leads to an increase in the fluorescence intensity. Inhibitors prevent the removal of the quencher, thus reducing the fluorescence intensity.
Tdp1 activity was detected, as described in the work in Reference, and consists of fluorescence intensity measurement in a reaction of quencher removal from a fluorophore quencher–coupled DNA oligonucleotide catalyzed by Tdp1. The reaction was carried out at different concentrations of inhibitors (the control samples contained 1% of DMSO). The reaction mixtures contained Tdp1 buffer (50 mM Tris-HCl pH 8.0, 50 mM NaCl, and 7 mM β-mercaptoethanol), 50 nM biosensor, and an inhibitor being tested. Purified Tdp1 (1.5 nM) triggered the reaction. The biosensor (5′-[FAM] AAC GTC AGGGTC TTC C [BHQ]-3′) was synthesized in the Laboratory of Biomedical Chemistry at the Institute of Chemical Biology and Fundamental Medicine (Novosibirsk, Russia).
The reactions were incubated on a POLARstar OPTIMA fluorimeter (BMG LABTECH, GmbH, Ortenberg, Germany) to measure fluorescence every 55 s (ex. 485/em. 520 nm) during the linear phase (here, data from minute 0 to minute 8). The values of IC50 were determined using a six-point concentration response curve in a minimum of three independent experiments and were calculated using MARS Data Analysis 2.0 (BMG LABTECH, Ortenberg, Germany).

The test system of data set [3] is HeLa cells. The data set can be described thus: Cytotoxicity, EZ4U Cell Proliferation and Cytotoxicity Assay. It counts as cell-based, human. How it is done: as §1, §2
The subject of data set [4] is HeLa cells. The data set can be described thus: Sensitization of cells to topotecan cytotoxicity by Tdp1 inhibitors. It counts as cell-based, human. The settings on record: inhibitor at 20 μM, varied topotecan concentrations; Mann-Whitney U-test, p = 0.05. The method, then:
In this work, we also tested the ability of the berberrubine sultones to sensitize cells to the action of topotecan. For this, we chose a non-toxic concentration of Tdp1 inhibitors at 20 μM and varied the concentrations of topotecan.
as §2

For data set [5], the target named is T1, tyrosyl-DNA phosphodiesterase 1 (Tdp1). The settings on record: previous work of the group; read-out: Tdp1 IC50 of previously synthesized berberine derivatives; cited from earlier work.

T1 sequence (Q9NUW8 whole entry): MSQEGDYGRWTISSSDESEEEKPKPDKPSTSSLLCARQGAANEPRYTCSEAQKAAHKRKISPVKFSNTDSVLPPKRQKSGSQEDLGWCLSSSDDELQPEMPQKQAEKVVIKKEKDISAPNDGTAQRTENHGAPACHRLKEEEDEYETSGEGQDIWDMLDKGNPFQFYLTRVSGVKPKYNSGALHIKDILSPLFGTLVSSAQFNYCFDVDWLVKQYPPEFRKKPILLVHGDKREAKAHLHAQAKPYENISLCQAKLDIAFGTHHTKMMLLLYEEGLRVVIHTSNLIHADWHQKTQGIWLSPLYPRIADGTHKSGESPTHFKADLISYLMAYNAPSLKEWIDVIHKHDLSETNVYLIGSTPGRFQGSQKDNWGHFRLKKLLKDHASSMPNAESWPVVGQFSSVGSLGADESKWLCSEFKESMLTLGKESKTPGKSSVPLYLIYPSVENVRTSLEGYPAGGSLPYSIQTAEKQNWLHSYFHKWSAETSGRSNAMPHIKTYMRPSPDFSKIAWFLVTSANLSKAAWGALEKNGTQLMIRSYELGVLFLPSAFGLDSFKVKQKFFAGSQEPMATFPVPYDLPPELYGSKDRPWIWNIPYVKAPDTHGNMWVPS

The term CC50 denotes the concentration giving 50% cytotoxicity. Broadly, the IC50 is the concentration that gives 50% inhibition. `COc1ccc2c3c1OS(=O)(=O)CC3N1CCc3cc4c(cc3C1=C2)OCO4` (stereo not drawn) [10a, 19-Methoxy-8,10,21-trioxa-22λ⁶-thia-2-azahexacyclo[14.7.1.0^2,¹⁴.0⁵,¹^3.0⁷,¹¹.0^2⁰,^2⁴]tetracosa-5,7(11),12,14,16,18,20(24)-heptaene-22,22-dione]: the CC50 at 3 days in data set [1] was greater than 100000 nM. Also, the IC50 in data set [2] turned out to be 1530 ± 180 nM.
For `COc1ccc2c3c1OS(=O)(=O)C(C)C3N1CCc3cc4c(cc3C1=C2)OCO4` (stereo not drawn) [10b, 19-Methoxy-23-methyl-8,10,21-trioxa-22λ⁶-thia-2-azahexacyclo[14.7.1.0^2,¹⁴.0⁵,¹^3.0⁷,¹¹.0^2⁰,^2⁴]tetracosa-5,7(11),12,14,16,18,20(24)-heptaene-22,22-dione], the CC50 at 3 days in data set [1] was greater than 100000 nM. Besides, the IC50 in data set [2] amounted to 2130 ± 160 nM.
The matching figures for `CCC1C2c3c(ccc(OC)c3OS1(=O)=O)C=C1c3cc4c(cc3CCN12)OCO4` (stereo not drawn) [10c, 23-Ethyl-19-methoxy-8,10,21-trioxa-22λ⁶-thia-2-azahexacyclo[14.7.1.0^2,¹⁴.0⁵,¹^3.0⁷,¹¹.0^2⁰,^2⁴]tetracosa-5,7(11),12,14,16,18,20(24)-heptaene-22,22-dione]: greater than 100000 nM and 5500 ± 100 nM.
As for `CCCC1C2c3c(ccc(OC)c3OS1(=O)=O)C=C1c3cc4c(cc3CCN12)OCO4` (stereo not drawn) [10d, 19-Methoxy-23-propyl-8,10,21-trioxa-22λ⁶-thia-2-azahexacyclo[14.7.1.0^2,¹⁴.0⁵,¹^3.0⁷,¹¹.0^2⁰,^2⁴]tetracosa-5,7(11),12,14,16,18,20(24)-heptaene-22,22-dione], the CC50 at 3 days in data set [1] was greater than 100000 nM. The IC50 in data set [2] stood at 1120 ± 180 nM.
On to `COc1ccc2c3c1OS(=O)(=O)C=C3N1CCc3cc4c(cc3C1=C2)OCO4` [16a, 19-Methoxy-8,10,21-trioxa-22λ⁶-thia-2-azahexacyclo[14.7.1.0^2,¹⁴.0⁵,¹^3.0⁷,¹¹.0^2⁰,^2⁴]tetracosa-1(23),5,7(11),12,14,16,18,20(24)-octaene-22,22-dione], for which the “concentration above which toxic to HeLa cells” value in the data set on HeLa cells [3] (human, 3 days) is reported as “above 20 μM”. Also, the cytotoxic concentration (CC50) at 3 days in data set [1] was roughly 100000 nM. The IC50 in data set [2] turned out to be 2500 ± 400 nM.
For the compound `COc1cc(Br)c2c3c1OS(=O)(=O)CC3N1CCc3cc4c(cc3C1=C2)OCO4` (stereo not drawn) [18a, 17-Bromo-19-methoxy-8,10,21-trioxa-22λ⁶-thia-2-azahexacyclo[14.7.1.0^2,¹⁴.0⁵,¹^3.0⁷,¹¹.0^2⁰,^2⁴]tetracosa-5,7(11),12,14,16,18,20(24)-heptaene-22,22-dione], in data set [1], the CC50 at 3 days is greater than 100000 nM. The IC50 in data set [2] is 925 nM and 920 nM.
Compound `COc1cc(Br)c2c3c1OS(=O)(=O)C(C)C3N1CCc3cc4c(cc3C1=C2)OCO4` (stereo not drawn) [18b, 17-Bromo-19-methoxy-23-methyl-8,10,21-trioxa-22λ⁶-thia-2-azahexacyclo[14.7.1.0^2,¹⁴.0⁵,¹^3.0⁷,¹¹.0^2⁰,^2⁴]tetracosa-5,7(11),12,14,16,18,20(24)-heptaene-22,22-dione] came in with a CC50 at 3 days in data set [1] greater than 100000 nM. Moreover, in data set [2], the IC50 was 1130 ± 200 nM.
The compound `CCC1C2c3c(c(Br)cc(OC)c3OS1(=O)=O)C=C1c3cc4c(cc3CCN12)OCO4` (stereo not drawn) [18c, 17-Bromo-23-ethyl-19-methoxy-8,10,21-trioxa-22λ⁶-thia-2-azahexacyclo[14.7.1.0^2,¹⁴.0⁵,¹^3.0⁷,¹¹.0^2⁰,^2⁴]tetracosa-5,7(11),12,14,16,18,20(24)-heptaene-22,22-dione] registered a 50% cytotoxic concentration (CC50) at 3 days in data set [1] greater than 100000 nM. Also, in data set [2], the IC50 is 560 ± 20 nM. Besides, the “sensitizing effect on topotecan cytotoxicity” value with HeLa cells [4] is “most pronounced and statistically significant; also recorded: enhances the cytotoxic effect of topotecan”.
In data set [1], `CCCC1C2c3c(c(Br)cc(OC)c3OS1(=O)=O)C=C1c3cc4c(cc3CCN12)OCO4` (stereo not drawn) [18d, 17-Bromo-19-methoxy-23-propyl-8,10,21-trioxa-22λ⁶-thia-2-azahexacyclo[14.7.1.0^2,¹⁴.0⁵,¹^3.0⁷,¹¹.0^2⁰,^2⁴]tetracosa-5,7(11),12,14,16,18,20(24)-heptaene-22,22-dione] gave a CC50 at 3 days greater than 100000 nM. Also, the IC50 in data set [2] is 780 ± 30 nM.
`COc1ccc2c(c1OS(C)(=O)=O)CN1CCc3cc4c(cc3C1C2)OCO4` (stereo not drawn) [21a]: the IC50 in data set [5] was greater than 15000 nM.
As for `CCS(=O)(=O)Oc1c(OC)ccc2c1CN1CCc3cc4c(cc3C1C2)OCO4` (stereo not drawn) [21b], the IC50 in data set [5] was greater than 15000 nM.
For `COc1ccc2cc3[n+](cc2c1OC)CCc1cc2c(cc1-3)OCO2` [berberine 1, berberine], in the data set with HeLa cells [3] (HeLa cells), the “concentration above which toxic to HeLa cells” value is listed as “above 20 μM”. Moreover, the cytotoxic concentration (CC50) at 3 days in data set [1] (HeLa cells, EZ4U test, 3 days, read-out: CC50 HeLa) was determined as 20000 nM.

These data come from paper PMC8037669, “Discovery of Novel Sultone Fused Berberine Derivatives as Promising Tdp1 Inhibitors” (Molecules, 2021).
